According to ChEMBL document CHEMBL1136860, “Synthesis and 5-lipoxygenase inhibitory activity of new cinnamoyl and caffeoyl clusters” (Bioorg Med Chem Lett, 2009):
Active and inactive are the calls of the source. No cut-off for these calls is given here.

Tests used:
Format in all cases: cell-based
[1] = target: T1, Polyunsaturated fatty acid 5-lipoxygenase (Homo sapiens, UniProt P09917); test: Inhibition of human 5LOX expressed in HEK293 cells
T1 sequence (P09917 whole entry): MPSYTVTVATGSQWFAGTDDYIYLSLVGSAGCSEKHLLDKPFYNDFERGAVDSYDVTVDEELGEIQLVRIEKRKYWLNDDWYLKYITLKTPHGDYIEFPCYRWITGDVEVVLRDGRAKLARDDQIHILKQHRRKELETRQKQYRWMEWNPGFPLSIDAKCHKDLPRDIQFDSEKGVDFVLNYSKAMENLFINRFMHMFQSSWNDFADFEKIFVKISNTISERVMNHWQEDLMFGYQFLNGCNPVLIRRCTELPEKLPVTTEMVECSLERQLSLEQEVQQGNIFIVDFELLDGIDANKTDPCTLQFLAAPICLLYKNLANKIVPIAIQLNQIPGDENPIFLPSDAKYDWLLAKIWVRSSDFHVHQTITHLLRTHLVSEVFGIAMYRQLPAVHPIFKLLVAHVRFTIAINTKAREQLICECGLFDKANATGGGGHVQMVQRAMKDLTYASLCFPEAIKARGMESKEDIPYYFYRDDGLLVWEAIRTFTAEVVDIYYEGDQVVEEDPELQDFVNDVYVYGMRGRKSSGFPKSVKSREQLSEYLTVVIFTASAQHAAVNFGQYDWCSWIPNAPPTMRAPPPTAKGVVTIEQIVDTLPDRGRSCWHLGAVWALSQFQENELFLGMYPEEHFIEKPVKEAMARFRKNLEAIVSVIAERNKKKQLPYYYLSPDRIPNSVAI

[2] = target: T2, Polyunsaturated fatty acid 5-lipoxygenase (Homo sapiens) (UniProt P09917); test: Ratio of IC50 of caffeic acid to IC50 of compound for human 5LOX expressed in HEK293 cells
T2 sequence (whole entry): T1 sequence (P09917 whole entry)

[3] = target: T2, Polyunsaturated fatty acid 5-lipoxygenase (Homo sapiens); test: Inhibition of human 5LOX expressed in HEK293 cells at 1 uM

O=C(/C=C/c1ccc(O)c(O)c1)OCCn1cc(COC(=O)/C=C/c2ccccc2)nn1
IC50 [1]: 680 nM | Ratio IC50 [2]: 36.7 | Activity [3]: Active

O=C(/C=C/c1ccccc1)OCCn1cc(COC(=O)/C=C/c2ccc(O)c(O)c2)nn1
Activity [3]: Active

O=C(/C=C/c1ccc(O)c(O)c1)OCCn1cc(COC(=O)/C=C/c2ccc(O)c(O)c2)nn1
IC50 [1]: 740 nM | Ratio IC50 [2]: 16.8 | Activity [3]: Active

O=C(/C=C/c1ccc(O)c(O)c1)OCc1cn(CC(CO)(Cn2cc(COC(=O)/C=C/c3ccc(O)c(O)c3)nn2)Cn2cc(COC(=O)/C=C/c3ccc(O)c(O)c3)nn2)nn1
IC50 [1]: 790 nM | Ratio IC50 [2]: 10.5 | inhibition [3]: 91%

O=C(/C=C/c1ccc(O)c(O)c1)OCCn1cc(COCC(COCc2cn(CCOC(=O)/C=C/c3ccc(O)c(O)c3)nn2)(COCc2cn(CCOC(=O)/C=C/c3ccc(O)c(O)c3)nn2)COCc2cn(CCOC(=O)/C=C/c3ccc(O)c(O)c3)nn2)nn1
Activity [3]: Active

O=C(/C=C/c1ccc(O)c(O)c1)OCc1cn(CC(COCC(Cn2cc(COC(=O)/C=C/c3ccc(O)c(O)c3)nn2)(Cn2cc(COC(=O)/C=C/c3ccc(O)c(O)c3)nn2)Cn2cc(COC(=O)/C=C/c3ccc(O)c(O)c3)nn2)(Cn2cc(COC(=O)/C=C/c3ccc(O)c(O)c3)nn2)Cn2cc(COC(=O)/C=C/c3ccc(O)c(O)c3)nn2)nn1
Activity [3]: Active

O=C(/C=C/c1ccc(O)c(O)c1)OCc1cn(CC(Cn2cc(COC(=O)/C=C/c3ccc(O)c(O)c3)nn2)(Cn2cc(COC(=O)/C=C/c3ccc(O)c(O)c3)nn2)Cn2cc(COC(=O)/C=C/c3ccc(O)c(O)c3)nn2)nn1
IC50 [1]: 660 nM | Ratio IC50 [2]: 10.1 | inhibition [3]: 92%
